Earlier results, collected in patent US20260325503A1, “LONG-ACTING FORMULATIONS” (JANSSEN PHARMACEUTICA NV, priority 2022, published 2026).

What was measured:
[1] = tested on: mycobacterial ATP synthase; conditions: mycobacterial ATP synthase versus eukaryotic mitochondrial ATP synthase
[2] = tested on: M. tuberculosis
[3] = tested on: Mycobacterium leprae

Compound: COc1nc2ccc(Br)cc2cc1[C@@H](c1ccccc1)[C@@](O)(CCN(C)C)c1cccc2ccccc12 [bedaquiline]
- selectivity index [1]: more than 20000
- minimal dose killing 99% of bacilli [2]: 30 mg/kg/wk
- minimal dose killing 99% of bacilli ([3]; M. lepra): < 5.0 mg/kg/wk
- Bactericidal activity (in words) ([3]; mycobacterium leprae, mice): bactericidal
